# Results as given in patent US10272126B2, “Nanoparticle-stabilized microcapsules, dispersions comprising nanoparticle-stabilized microcapsules, and method for the treatment of bacterial biofilms” (The University of Massachusetts, priority 2015, dated 2019).
# System: NIH 3T3 fibroblast cells
# Test: Biofilm-3T3 fibroblast co-culture: mammalian cell viability (LDH cytotoxicity assay)
# Type: cell-based
# Text: Scatters and lines represent 3T3 fibroblast cell viability. Bars represent log10 of colony forming units in biofilms. The data are average of triplicates and the error bars indicate the standard deviations.
# Biofilm infections within wounds interfere with the ability of the host to regenerate damaged tissue. See, e.g., Roy, S.; Elgharably, H.; Sinha, M.; Ganesh, K.; Chaney, S.; Mann, E.; Miller, C.; Khanna, S.; Bergdall, V. K.; Powell, H. M.; et al. Mixed-Species Biofilm Compromises Wound Healing by Disrupting Epidermal Barrier Function. J. Pathol. 2014, 233, 331-343. […] The co-cultures were treated with capsules for 3 hours, washed, and the viabilities of both fibroblasts and bacteria were measured. […]
# Testing solutions at different concentrations were made by diluting capsules into DMEM prior to use. […] Co-cultures were then analyzed using a LDH cytotoxicity assay to determine mammalian cell viability according the manufacturer's instructions. See, e.g., Decker, T.; Lohmann-Matthes, M. L. A Quick and Simple Method for the Quantitation of Lactate Dehydrogenase Release in Measurements of Cellular Cytotoxicity and Tumor Necrosis Factor (TNF) Activity. […] The solutions containing dispersed bacteria were then plated onto agar plates and colony forming units were counted after incubation at 37° C. overnight.
substance,measurement,value
peppermint oil,3T3 fibroblast cell viability in co-culture,toxic effects
